Measured values: patent US20210352895A1, “SYNERGISTIC PESTICIDAL COMPOSITIONS AND METHODS FOR DELIVERY OF ACTIVE INGREDIENTS” (0903608 B.C. Ltd., priority 2018, published 2021)
Read-outs that look alike come from different tables or passages of the source. Values belong to the compound of their own block, whether it stands above or below them.

Tests used:
Fusarium oxysporum = test: Synergistic Growth Inhibition Assay (MIC / FIC index, resazurin, 96-well) on Fusarium oxysporum; assay type: cell-based; details: for MIC: 48 h
Description: (§1) In some embodiments, the synergistic action between the pesticidal active ingredient, and the at least one C4-C10 (or alternatively C11 or C12) saturated or unsaturated aliphatic acid components of the pesticidal compositions according to embodiments of the present disclosure was tested using a Synergistic Growth Inhibition Assay, which is derived from and related to a checkerboard assay as is known in the art for testing of combinations of antimicrobial agents. In the Synergistic Growth Inhibition Assay used in accordance with some embodiments of the present disclosure, multiple dilutions of combinations of pesticidal active ingredient and at least one C4-C10 saturated or unsaturated aliphatic acid agents are tested in individual cells for inhibitory activity against a target pest or pathogenic organism. In one such embodiment, the combinations of pesticidal active ingredient and C4-C10 (or alternatively C11 or C12) saturated or unsaturated aliphatic acid agents may preferably be tested in decreasing concentrations. In a further such embodiment, the combinations of pesticidal active ingredient and C4-C10 (or alternatively C11 or C12) saturated or unsaturated aliphatic acid agents may be tested in increasing concentrations. These multiple combinations of the pesticidal active ingredient and at least one C4-C10 (or alternatively C11 or C12) saturated or unsaturated aliphatic acid agents may be prepared in 96-well microtiter plates. In one such embodiment, the Synergistic Growth Inhibition Assay then comprises rows which each contain progressively decreasing concentrations of the pesticidal active ingredient and one or more C4-C10 (or alternatively C11 or C12) saturated or unsaturated aliphatic acid agents to test for the MIC of the agents in combination at which growth of the target pest or pathogen is inhibited. Thus, each well of the microtiter plate is a unique combination of the two agents, at which inhibitory efficacy of the combination against the target pest or pathogen can be determined.
(§2) In one embodiment according to the present disclosure, for each row of microtiter cells in the Synergistic Growth Inhibition Assay, the FIC index is calculated from the lowest concentration of the pesticidal active ingredient and one or more C4-C10 saturated or unsaturated aliphatic acid agents necessary to inhibit growth of a target pest or pathogen. The FIC of each component is derived by dividing the concentration of the agent present in that well of the microtiter plate by the minimal inhibitory concentration (MIC) needed of that agent alone to inhibit growth of the target pest or pathogen. The FIC index is then the sum of these values for both agents in that well of the microtiter plate. The FIC index is calculated for each row as follows:
(§3) FICindex=MICa/MICA+MICb/MICB
(§4) Fractional inhibitory concentration indices may then used as measure of synergy. […] When the FIC index is equal to 1, the combination is additive.
(§5) Then, serial dilutions of these initial compositions in successive wells in the row of the microtiter plate were used to assay the pesticidal composition under the same conditions to determine the concentration of the composition combining the two agents corresponding to the microtiter well in which growth inhibition of the target pest or organism ceases.
Resazurin dye (also known as Alamar blue dye) was used as an indicator to determine the presence of growth or inhibition of growth of Fusarium oxysporum in the wells of the 96 well microtiter plates used in the exemplary Synergistic Growth Inhibition Assay. In addition to the color change of the resazurin dye in the presence of growth of the Fusarium oxysporum, an optical or visual examination of the microtiter well may also be made to additionally determine the presence of growth or inhibition of growth of the Fusarium oxysporum.

Sclerotinia sclerotiorum = test: Synergistic Growth Inhibition Assay (MIC / FIC index, resazurin, 96-well) on Sclerotinia sclerotiorum; assay type: cell-based; details: Sclerotinia sclerotiorum, […], Sclerotinia sclerotiorum
Description: as §1, §2, §3, §4, §5
(§6) Similarly to as described above, Resazurin was used as an indicator of growth or inhibition of growth of Sclerotinia sclerotiorum in the exemplary Synergistic Growth Inhibition Assay. In addition to the color change of the resazurin, an optical or visual examination of the microtiter well may also be made to additionally determine the presence of growth or inhibition of growth of the Sclerotinia sclerotiorum.

Botrytis cinerea = test: Synergistic Growth Inhibition Assay (MIC / FIC index, resazurin, 96-well) on Botrytis cinerea; assay type: cell-based; details: Botrytis cinerea, Botrytis cinerea; for MIC: 48 h
Description: as §1, §2, §3, §4, §5
as §6, with “Botrytis cinerea” for “Sclerotinia sclerotiorum”, “Botrytis cinerea.” for “Sclerotinia sclerotiorum.”

Trichoplusia ni = test: In-vitro insecticidal efficacy of Entrust SC (spinosad) with saturated and unsaturated aliphatic acids on artificial diet, Abbott and Colby formulae; assay type: in vivo, Trichoplusia ni (cabbage looper); details: Entrust SC 0.034 ppm ([…] spinosad); aliphatic acid (salt) 500 ppm; Abbott-corrected
Description: An artificial diet suitable for Trichoplusia ni (cabbage looper caterpillar) was prepared from a commercially available general purpose lepidoptera artificial diet premix (General Purpose Lepidoptera Diet available from Frontier Scientific Services, Newark, Del.) mixed in agar media and then heated to liquify the media. The liquid artificial diet media was then used to fill each well of a 96-well treatment plate with 200 uL of artificial diet media, which was allowed to solidify at room temperature and stored at approximately 4 C.
A 20 uL treatment sample of each treatment formulation was then placed on top of the solidified artificial diet media in each well of the 96 well plates and allowed to dry overnight. The following day, one neonate Trichoplusia ni (cabbage looper) larva (hatched from eggs obtained from the Natural Resource Canada insect research facility in Sault-Ste-Marie, ON, Canada) was added to each well of the plate, and their mortality rate was evaluated after 5 days, to determine the insecticidal efficacy of the Entrust® SC treatment alone, each exemplary unsaturated or saturated aliphatic acid (and salt) alone, and each combination of spinosad (as Entrust® SC) and unsaturated or saturated aliphatic acid (and salt). Each experiment contained 3 replicates.
While for SF<1, antagonism is present and for SF=1, the efficacy of the compounds is merely additive.

[1] = Fusarium oxysporum, Compound B alone, Fusarium oxysporum, 48 hours incubation, read-out: MIC (B)
[2] = Compound B alone, incubation period of 7 days, read-out: MIC (B)
[3] = Compound B alone, 48 hours incubation
[4] = read-out: MIC (B), Compound B alone, 7 days incubation
[5] = Fusarium oxysporum, Compound B alone, Fusarium oxysporum, incubation period of 48 hours, read-out: MIC (B)
[6] = Compound A alone, incubation period of 48 hours, read-out: MIC (A)

MIC (Fusarium oxysporum; [1]): 125 µg/mL
MIC (Sclerotinia sclerotiorum; Compound B alone, 7 days incubation, read-out: MIC (B)): 125 µg/mL
MIC (Sclerotinia sclerotiorum; [2]): 125 µg/mL
Compound: CCCC(C)CC(=O)O (stereo not drawn) [3-methylhexanoic acid]

Compound: N#Cc1c[nH]cc1-c1cccc2c1OC(F)(F)O2 [Fludioxonil, fludioxonil, reference compound]
MIC (Botrytis cinerea; read-out: MIC (A), Compound A alone, incubation period of 2 days): 0.164 µg/mL
MIC (Sclerotinia sclerotiorum; read-out: MIC (A), Compound A alone, incubation period of 7 days): 0.328 µg/mL

MIC (B) (Botrytis cinerea; [3]): 2500 µg/mL
Compound: CCCC(O)CC(=O)O (stereo not drawn) [3-Hydroxyhexanoic acid, 3-hydroxyhexanoic acid]

MIC (Fusarium oxysporum; [1]): 250 µg/mL
MIC (Sclerotinia sclerotiorum; [2]): 250 µg/mL
Compound: CCC(CC)(CC)C(=O)O [2,2-diethylbutyric acid]

Compound: CCCCC=CCC(=O)O [3-Octenoic acid, 3-octenoic acid]
Observed Efficacy, W (%) (Trichoplusia ni): 0%

Compound: O=C(O)CCCCCCCCCCCO [12-hydroxydodecanoic acid]
MIC (Sclerotinia sclerotiorum; [4]): 100 µg/mL
MIC (Sclerotinia sclerotiorum; read-out: MIC (B), Compound B alone, incubation period of 7 days): 100 µg/mL

MIC (Botrytis cinerea; Compound B alone, 48 hours incubation, read-out: MIC (B)): 2500 µg/mL
MIC (Botrytis cinerea; Compound B alone, incubation period of 2 days, read-out: MIC (B)): 2500 µg/mL
MIC (Fusarium oxysporum; [1]): 2500 µg/mL
MIC (Fusarium oxysporum; [5]): 2500 µg/mL
MIC (Sclerotinia sclerotiorum; [2]): 2500 µg/mL
Compound: CCCCC(O)C(=O)O (stereo not drawn) [2-hydroxyhexanoic acid]

Compound: O=C(O)CCCCCCCCCO [10-hydroxydecanoic acid]
MIC (Botrytis cinerea; read-out: MIC (B), Compound B alone, 48 hours incubation): 500 µg/mL
MIC (Botrytis cinerea; read-out: MIC (B), Compound B alone, incubation period of 2 days): 500 µg/mL
MIC (Fusarium oxysporum; Fusarium oxysporum, read-out: MIC (B), Compound B alone, Fusarium oxysporum, 48 hours incubation): 1000 µg/mL
MIC (Sclerotinia sclerotiorum; [4]): 1000 µg/mL

Compound: CCCCCC=CCC(=O)O [3-nonenoic acid]
Observed Efficacy, W (%) (Trichoplusia ni): 9.1%

MIC (B) (Botrytis cinerea; [3]): 10000 µg/mL
Compound: CC(O)CC(=O)O (stereo not drawn) [3-Hydroxybutyric acid, 3-hydroxybutyric acid]

MIC (Fusarium oxysporum; [1]): 625 µg/mL
MIC (Fusarium oxysporum; [5]): 625 µg/mL
MIC (Sclerotinia sclerotiorum; [2]): 312 µg/mL
Compound: CCCCCCC(O)C(=O)O (stereo not drawn) [2-hydroxyoctanoic acid]

Compound: CCCC/C=C/CC(=O)O [Trans-3 octenoic acid]
Observed Efficacy, W (%) (Trichoplusia ni): 4.5%

MIC (A) (Botrytis cinerea; Compound A alone, incubation period of 48 hours): 125 µg/mL
MIC (A) (Fusarium oxysporum; Compound A alone, Fusarium oxysporum, incubation period of 48 hours): 500 µg/mL
MIC (A) (Fusarium oxysporum; Table 60, Compound A = nootkatone(+), alone or in combination with Compound B, incubation period not stated in table (either 24 hours or 4 days)): 500 µg/mL
Compound: C=C(C)[C@@H]1CCC2=CC(=O)C[C@@H](C)[C@]2(C)C1 [Nootkatone (+)]

Compound: CC1COC(Cn2cncn2)(c2ccc(Oc3ccc(Cl)cc3)cc2Cl)O1 (stereo not drawn) [Difenoconazole, reference compound]
MIC (Botrytis cinerea; [6]): 25.5 µg/mL
MIC (A) (Botrytis cinerea; Compound A alone, incubation period of 2 days): 51 µg/mL
MIC (A) (Fusarium oxysporum; Compound A alone, 48 hours incubation): 51 µg/mL

Compound: C=CCCCC(=O)O [5-hexenoic acid]
Observed Efficacy, W (%) (Trichoplusia ni): 0%

Compound: CCCCCCCC(=O)[O-].[K+] [Octanoic acid, K-salt]
Observed Efficacy, W (%) (Trichoplusia ni): 0%

Compound: Cc1cc(C2CC2)nc(Nc2ccccc2)n1 [Cyprodinil, reference compound]
MIC (Botrytis cinerea; [6]): 9 µg/mL

Compound: CC/C=C/CC(=O)O [Trans-3-hexenoic acid, trans-3-hexenoic acid]
Observed Efficacy, W (%) (Trichoplusia ni): 0%
